# Laboratory results: US20200038355A1, “ANTIOXIDANTS FOR USE IN OPHTHALMIC SURGERY” (Case Western Reserve University, priority 2017, published 2020)
# “Also recorded” adds a separate entry of the source.
# Key:
# mice = assay: Mouse mock cataract surgery in vivo, immunofluorescence of EMT markers
# Protocol: Age-matched four month old mice were used in this study. Mice were anesthetized and a central corneal incision was made. The lens fiber mass was removed by hydrodissection and the remaining lens was carefully washed by HBSS to remove any lens fiber debris. Saline buffer was injected to help mice to restore their proper eye shape. Eye drops containing the antibiotic Ofloxacin were applied once immediately after surgery, and mice were sacrificed at 2, 3, 4 and 5 days after surgery. For each mouse, bilateral surgeries were performed and 25 μl of 10 mM NAC or 2 mM of GSH-EE was injected into right eye chamber immediately after surgery and continual eye drop topical application was given every 6 hr from 7 am to 11 pm. The untreated left eye served as a control. Eyes collected immediately after surgery served as time zero control. At least 6 mice were used in each group. At each time point, eyes were carefully dissected and placed in 4% paraformaldehyde for 18 hr, and then subjected to paraffin embedding and sectioning. For paraffin embedded slides, 6 μm thick sections were deparaffinized and rehydrated using standard procedure. The slides were rinsed with PBS for 10 min and antigen retrieval was carried out in 0.1M sodium citrate, pH 6.0 buffer in a microwave oven using a 4 min at power 5 plus 8 min at power 3 program. The slides were then blocked and permeabilized with 5% normal goat serum, 0.3% triton X-100 for 30 min. The primary antibody, rabbit polyclonal collagen I antibody (1:250) (Abcam, Cambridge, Mass.), rabbit polyclonal vimentin (1:500) (ThermoFisher), mouse monoclonal fibronectin antibody (1:5) (Developmental Studies Hybridoma Bank, DSHB, University of Iowa), mouse monoclonal active β-catenin (Tyr489) (1:10) (DSHB) or FITC labeled mouse monoclonal αSMA antibody (1:1000) (Sigma-Aldrich) were applied in 0.1% BSA PBS solution and incubated at 4° C. overnight in a humid chamber. After wash, the Alexa-488 or/and Alexa-594 conjugated secondary antibodies (ThermoFisher) were then applied and incubated at room temperature for one hour in a humid chamber. After wash, the slides were mounted with Prolong antifade with DAPI (ThermoFisher). For lens explant culture, the explant was briefly fixed with 10% formaldehyde for 10 min and then subjected to directly staining procedure without antigen retrieval procedure. Confocal microscope—All confocal images were collected by a Leica SP8 gSTED confocal microscope equipped with two 3 Hyd SP GaAsP detectors and the AOBS system lasers include a 405 nm, Argon (458, 476, 488, 496, 514 nm), a tunable white light (470 to 670 nm), and a 592 nm STED depletion laser. For proper comparison, each channel of fluorescence was adjusted to the highest sensitivity/intensity but without over saturation from samples with the strongest signal. […]
# HLE-B3 cells = assay: EMT marker / Wnt-β-catenin immunoblot in human lens epithelial cell line HLE-B3; format: cell-based; conditions: for αSMA production after BSO stimulation: HLE-B3 cells co-treated with 10 mM NAC or 0.5 mM GSH-EE and 500 μM BSO, 24 hr; for TGFβ2-mediated αSMA production: HLE-B3 cells, 10 mM NAC or 0.5 mM GSH-EE co-incubated with 1 ng/ml TGFβ2, 24 hr; for BSO-increased Ser9 phosphorylation of GSK-3β / BSO-increased β-catenin expression: cells co-treated with 0.5 mM GSH-EE or 10 mM NAC, BSO 24 hr
# Protocol: Cell Culture—Human lens epithelial cells (HLE-B3) were grown in DMEM medium with 10% fetal bovine serum (FBS), 2 mM glutamine and 50 unit/ml penicillin streptomycin (ThermoFisher, Waltham, Mass.) at 37° C. in a humidified 5% CO2 incubator. For primary porcine lens epithelial cell culture, pig eyes were collected at a local slaughterhouse within two hours of postmortem time, placed on ice and transported to the lab (about 1 hr) for immediate processing. First, the isolated lens was incubated with 2 ml of 0.25% trypsin at 37° C. for 2 min to remove any attached non-lens cells. Then, after a brief rinse with HBSS, the lens capsule was isolated and rinsed three times with HBSS before incubation with 2 ml of 0.5% trypsin for 5 min. 5 ml of complete DMEM medium was added and tissue was disrupted by pipetting up and down 10-15 times with a pipette fitted with a 1000 μl tip. The tissue homogenate was then passed through a 100 μm cell strainer. The cells were collected by low speed centrifugation at 150×g and placed in a 35 mm laminin-coated tissue culture dish with DMEM medium supplied with 10% FBS, 2 mM glutamine and 50 unit/ml penicillin streptomycin (ThernoFisher). The cells were cultured at 37° C. in a humidified incubator with 5% CO2.
# Cells were placed 24 hr before the treatment and fresh medium was replaced immediately before the treatment. The indicated concentrations of BSO, DMF, NAC, GSH-EE or TGFβ2 were added to fresh medium and incubated at various time intervals as indicated. After treatment time, the cells were harvested after three washes with ice-cold PBS and subjected to immunoblot or other assays as described below. For whole lens culture, the serum-free medium with or without BSO, NAC, GSH-EE or TGFβ2 was incubated immediately after isolation for 48 hr and the whole lens or lens capsule was collected for further analysis. For lens explant culture, 48 hr after explant culture, various stimulates were used in fresh serum-free medium for an additional 48 hr, and the explant was fixed with 10% formaldehyde for 10 min before immunofluorescence stain, as described below.
# The cells, whole lens, lens capsule, and lens fibers were collected and lysed in lysis buffer containing 20 mM Tris pH 7.5, 1 mM EDTA, 1 mM EGTA, 150 mM NaCl, 1% Triton X-100, 2.5 mM sodium pyrophosphate, 1 mM bα-Glycerolphosphate, 1 mM Na3VO4, 1 mg/ml Leupeptin, 1 mM PMSF on ice for 10 min. The protein concentration from the supernatant was determined by protein BCA assay (ThermoFisher). The protein extract was further processed for immunoblot analysis and probed for αSMA, collagen I, vimentin, phosphorylated Smad2, phosphorylated Smad3, phosphorylated GSK-3β and (β-catenin. All data were normalized to the level of GAPDH.
structure (smiles),measurement,setting,value
"CCOC(=O)CNC(=O)[C@H](CS)NC(=O)CC[C@H](N)C(=O)O [GSH-EE, glutathione ethyl ester]","production of EMT marker proteins (fibronectin, vimentin, collagen I, αSMA)","mice; Gclm KO mice, 2 mM GSH-EE",partially but significantly attenuate
same,αSMA production after BSO stimulation,HLE-B3 cells,"alleviated; also recorded: partially, but significantly, block"
same,TGFβ2-mediated αSMA production,HLE-B3 cells,alleviated; also recorded: significantly alleviate
same,BSO-increased Ser9 phosphorylation of GSK-3β,HLE-B3 cells,alleviated
same,BSO-increased β-catenin expression,HLE-B3 cells,attenuate; also recorded: alleviated
"CC(=O)N[C@@H](CS)C(=O)O [NAC, N-acetyl cysteine]",nuclear colocalization (translocation) of active β-catenin,"mice; Gclc−/− (LEGSKO) mice, 72 hr after surgery, 10 mM NAC injected into eye chamber plus eye drops every 6 hours",significantly attenuated
same,fibronectin/vimentin and collagen I/αSMA expression compared to control eyes,"mice; WT and LEGSKO mice, 10 mM NAC injection immediately after surgery and continuous topical application",remarkable attenuation
same,inhibitory effect on EMT process compared with GSH-EE,mice; in vivo cataract surgery models,much higher inhibitory effect than GSH-EE
same,αSMA production after BSO stimulation,HLE-B3 cells,alleviated; also recorded: completely abolish
same,TGFβ2-mediated αSMA production,HLE-B3 cells,alleviated; also recorded: completely block
same,inhibitory effect on EMT process compared with GSH-EE,HLE-B3 cells; cell culture,much higher inhibitory effect than GSH-EE
same,BSO-increased Ser9 phosphorylation of GSK-3β,HLE-B3 cells,attenuate; also recorded: alleviated; also recorded: completely abolished
same,BSO-increased β-catenin expression,HLE-B3 cells,alleviated
